Data from patent US20130197085A1, “AGENT AND METHOD FOR STABILIZING MEMBRANE PROTEIN” (priority 2007, published 2013).

Experiments:
wild-type BSEP [1] = biological target: T1, wild-type BSEP (Homo sapiens, UniProt O95342, L339V); assay: Transcellular transport assay of [^3H] TC across MDCKII monolayer; assay type: cell-based; settings: other carboxylic acids, 1 mM, 24 hours; FIG. 10
T1 construct: expressed in transfected cells; host or cells: MDCKII cells infected with recombinant adenovirus
Protocol: MDCKII cells were dispersed on a Transwell membrane insert (pore size: […]; Falcon) of a 24-well plate, resulting in a density of 1.5×10^5 cells/insert. Two days after the culture, the confluent cells were infected with recombinant adenoviruses having the cDNAs of wild-type, E297G and D482G BSEPs, and GFP, at 50 MOI. […] After completion of the treatment for 24 hours, a transcellular transport assay was carried out (see Mita et al., Am J Physiol Gastrointest Liver Physiol 290: G550-G556, 2006).
The apparent efflux clearance across the apical membrane (PSapical) was calculated by dividing a steady rate of the transcellular transport of [^3H] TC for 2 hours by the intracellular concentration of the [^3H] TC at the termination of the experiment (2 hours later).

wild-type BSEP [2] = biological target: T1, wild-type BSEP; assay: Cell surface biotinylation method, expression on the surface of MDCKII cells; assay type: cell-based; settings: 1 mM, 24 hours, FIG. 9 cell surface fraction
Protocol: MDCKII cells were dispersed on a 6-well plate, resulting in a density of 2.5×10^5 cells/well. After completion of the culture for 24 hours, the confluent cells were infected with recombinant adenoviruses having the cDNAs of wild-type, E297G and D482G BSEPs, and GFP, at 200 MOI. After completion of the infection, the cells were cultured for 24 hours. […] After completion of the treatment for 24 hours, the cells were biotinylated (see Hayashi et al., Hepatology, 41: 916-924, 2005).

T1 sequence (O95342 whole entry L339V): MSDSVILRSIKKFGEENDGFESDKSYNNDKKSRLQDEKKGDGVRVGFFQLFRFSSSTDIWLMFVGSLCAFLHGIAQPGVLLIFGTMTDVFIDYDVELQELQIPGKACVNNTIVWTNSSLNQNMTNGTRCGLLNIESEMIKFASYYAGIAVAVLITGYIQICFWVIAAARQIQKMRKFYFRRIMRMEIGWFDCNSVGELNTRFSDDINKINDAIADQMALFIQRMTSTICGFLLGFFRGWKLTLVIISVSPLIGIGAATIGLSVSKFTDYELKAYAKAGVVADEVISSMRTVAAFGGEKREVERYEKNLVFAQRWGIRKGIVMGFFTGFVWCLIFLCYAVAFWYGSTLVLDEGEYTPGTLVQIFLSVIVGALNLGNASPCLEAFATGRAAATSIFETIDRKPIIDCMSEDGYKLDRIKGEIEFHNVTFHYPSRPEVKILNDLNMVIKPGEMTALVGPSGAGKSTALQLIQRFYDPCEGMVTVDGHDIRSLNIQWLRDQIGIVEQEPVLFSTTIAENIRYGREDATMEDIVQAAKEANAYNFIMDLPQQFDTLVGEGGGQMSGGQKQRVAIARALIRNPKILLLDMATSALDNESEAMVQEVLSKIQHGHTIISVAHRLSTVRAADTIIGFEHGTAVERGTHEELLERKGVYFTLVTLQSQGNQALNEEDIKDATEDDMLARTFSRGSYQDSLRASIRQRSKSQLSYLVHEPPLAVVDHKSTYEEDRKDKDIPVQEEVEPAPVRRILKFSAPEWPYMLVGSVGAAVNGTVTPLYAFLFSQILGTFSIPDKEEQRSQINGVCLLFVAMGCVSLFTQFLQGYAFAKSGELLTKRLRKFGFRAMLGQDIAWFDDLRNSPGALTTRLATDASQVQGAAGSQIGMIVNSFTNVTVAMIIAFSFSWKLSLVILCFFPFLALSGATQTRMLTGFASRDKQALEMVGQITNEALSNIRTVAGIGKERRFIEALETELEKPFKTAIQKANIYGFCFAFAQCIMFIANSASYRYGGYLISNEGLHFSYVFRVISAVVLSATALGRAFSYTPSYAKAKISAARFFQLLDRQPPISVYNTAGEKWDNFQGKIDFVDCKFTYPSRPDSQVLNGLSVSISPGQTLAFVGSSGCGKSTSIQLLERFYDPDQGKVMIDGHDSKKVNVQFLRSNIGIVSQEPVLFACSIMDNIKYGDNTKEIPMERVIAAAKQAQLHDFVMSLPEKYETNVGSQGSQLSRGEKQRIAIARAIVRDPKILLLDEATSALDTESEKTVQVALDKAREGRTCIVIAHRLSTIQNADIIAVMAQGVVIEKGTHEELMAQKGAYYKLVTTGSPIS

Compound | efflux of [^3H] TC from the base side to the apical side (in words) (wild-type BSEP [1]) | expression level of wild-type BSEP (wild-type BSEP [2])
CCCC(=O)O [butanoic acid] | increased | –
CCCCCCCCCC(=O)O [decanoic acid] | increased | –
CCCCCCCC(=O)O [octanoic acid] | – | an increase in the expression level was observed
CCC(=O)O [propionic acid] | increased | –
